Patent publication US10689383B2, “Optionally fused heterocyclyl-substituted derivatives of pyrimidine useful for the treatment of inflammatory, metabolic, oncologic and autoimmune diseases” (NUEVOLUTION A/S, priority 2014, dated 2020)
pIC50: −log10 of the molar value.

Experiments:
[1] = biological target: T1, yeast Gal4-DNA binding domain fused to the ligand binding domain of human RORγ (Homo sapiens, UniProt P51449); experiment: RORγ Reporter Assay (Gal4); format: cell-based; conditions: values given as lower bounds of ranges; for Gal4 activity range @ 0.1 μM (% inhibition): RORγ Reporter Assay (Gal4) at 0.1 μM; for Gal4 activity range @ 1 μM (% inhibition): RORγ Reporter Assay (Gal4) at 1 μM
T1 construct: host or cells: HEK293t
T1 sequence (P51449 269-508 limits assumed): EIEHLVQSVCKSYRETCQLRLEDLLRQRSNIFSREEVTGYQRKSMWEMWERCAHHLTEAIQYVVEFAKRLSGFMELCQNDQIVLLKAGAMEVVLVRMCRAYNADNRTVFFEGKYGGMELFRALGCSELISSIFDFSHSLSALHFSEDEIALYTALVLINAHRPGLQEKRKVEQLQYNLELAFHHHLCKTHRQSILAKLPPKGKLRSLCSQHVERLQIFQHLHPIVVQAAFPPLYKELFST
Method: The activity of the compounds was evaluated using a Fluorescence Polarization (FP) Assay and, in most cases, a Th17 Assay and/or RORγ Reporter assay (also referred to as Gal4 assay). The FP assay is an in vitro assay monitoring binding within the ligand binding pocket. The RORγ and the Th17 assays are both cell-based assays monitoring functional activity of the compound assayed.
Cell-based RORγ functional assays were performed using a commercially available assay product (INDIGO Biosciences, State College, Pa., USA; product # IB04001). The RORγ reporter cells are HEK293t cells transfected with one vector that provides high level constitutive expression of a hybrid protein comprised of the yeast Gal4-DNA binding domain fused to the ligand binding domain of human RORγ, and a second vector comprising the firefly luciferase cDNA functionally linked to the upstream activation sequence (UAS) of yeast Gal4. A suspension of RORγ Reporter Cells was prepared using the protocol and culture medium provided in the kit product, and 100 μl of the Reporter Cell suspension was then dispensed into wells of a white, collagen-treated, 96-well assay plate. Concentrated stocks of test compounds were prepared in DMSO, then further diluted using media provided in the kit to generate ‘2×-concentration’ treatment media. 100 μl of medium for each respective treatment concentration dispensed into triplicate assay wells, thereby combining with the reporter cells. All media formulations contained 10% charcoal stripped Fetal Bovine Serum, but are otherwise proprietary to INDIGO Biosciences. Final treatment concentrations for each test compound were 1,000 nM and 100 nM, each with 0.1% residual DMSO. Separate control treatments were media supplemented with vehicle only (0.1% DMSO) to determine the constitutive level of RORγ activity in the reporter cells, and the reference inverse-agonist ursolic acid (f.c. 6,000 nM to 8.2 nM in 3-fold decrements) to establish a positive control inverse-agonist dose response. Assay plates were placed in a 37° C., 5% CO2, 85% humidity incubator for 24 hour. Treatment media were then discarded, 100 μl of luciferase detection reagent was added to each well, and relative light units (RLUs) were quantified from each assay well using a plate reading luminometer. Values of average RLU+/−standard deviation were computed for all treatment sets, followed by the calculations of fold-reduction: [Average RLUVehicle/Average RLUTest Cmpd]. Percent-reduction of RORγ activity in response to respective test compound treatments was calculated: [100*(1−[Ave RLUTest Cmpd/Ave RLUVehicle)] where the theoretical minimum reduction (0% reduction) derives from Vehicle treatment only, no treatment compound.

[2] = biological target: T2, human RORγt (Ligand Binding Domain) (Homo sapiens, UniProt P51449); experiment: Fluorescence Polarization (FP) Assay; conditions: Fluorescence Polarization (FP) Assay; values given as upper bounds of activity ranges; read-out: FP activity range
T2 construct: purchased Crelux (Planegg, Germany) batch no PC5032-1
T2 sequence (P51449 269-508 limits assumed): T1 sequence (P51449 269-508 limits assumed)
How it was run: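 In vitro FP binding assay monitoring ligand binding within the ligand binding pocket. Probe is a TAMRA-labelled RORγt ligand (MW 910 g/mole); DMSO served as negative control.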

| SMILES | Gal4 activity range @ 0.1 μM (% inhibition) [1] [% inhibition] | Gal4 activity range @ 1 μM (% inhibition) [1] [% inhibition] | pIC50 [2] |
| --- | --- | --- | --- |
| CC1CCC(CNc2ncnc(N3CCCC3c3ccc(C(F)(F)F)cc3)c2F)CC1 (centres unmarked) [Example 93, 5-fluoro-N-[(4-methylcyclohexyl)methyl]-6-[2-[4-(trifluoromethyl)phenyl]pyrrolidin-1-yl]pyrimidin-4-amine] | >0 | >50 | > 6.30 |
| O=S(=O)(NC1CC1)c1ccc(CNc2ncnc(N3CCOC[C@@H]3c3ccc(C(F)(F)F)cc3)c2F)cc1 [Example 236, N-cyclopropyl-4-[[[5-fluoro-6-[(3S)-3-[4-(trifluoromethyl)phenyl]morpholin-4-yl]pyrimidin-4-yl]amino]methyl] benzenesulfonamide] | >80 | >80 | > 6.30 |
| NC(=O)Cc1ccc(Cn2ccc3c(N4CCC[C@@H]4c4ccc(C(F)(F)F)cc4)ncnc32)cc1 [Example 196, 2-[4-[[4-[(2R)-2-[4-(trifluoromethyl)phenyl]pyrrolidin-1-yl]pyrrolo[2,3-d]pyrimidin-7-yl]methyl]phenyl]acetamide] | >80 |  | > 6.30 |
| O=C(O)Cc1ccc(CNc2ncnc(N3CCCC3c3ccc(OC(F)(F)F)cc3)c2F)cc1 (centres unmarked) [Example 192, 2-[4-[[[5-fluoro-6-[2-[4-(trifluoromethoxy)phenyl]pyrrolidin-1-yl]pyrimidin-4-yl]amino]methyl]phenyl]acetic acid] | >50 |  | > 6.30 |
| O=S1(=O)CCC(O)(CNc2ncnc(N3CCC[C@@H]3c3ccc(C(F)(F)F)cc3)c2F)CC1 [Example 223, 4-[[[5-fluoro-6-[(2R)-2-[4-(trifluoromethyl)phenyl]pyrrolidin-1-yl]pyrimidin-4-yl]amino]methyl]-1,1-dioxo-thian-4-ol] | >50 | >80 | > 6.30 |
| NC(=O)Cc1ccc(CNc2ncnc(N3CC(=O)CC3c3ccc(C(F)(F)F)cc3)c2F)cc1 (centres unmarked) [Example 280, 2-[4-[[[5-fluoro-6-[4-oxo-2-[4-(trifluoromethyl)phenyl]pyrrolidin-1-yl]pyrimidin-4-yl]amino]methyl]phenyl]acetamide] | >0 | >20 | > 6.30 |
| COc1ccc(CNc2ncnc(N3CCCC3c3ccc(C(F)(F)F)cc3)c2F)cn1 (centres unmarked) [Example 114, 5-fluoro-N-[(6-methoxy-3-pyridyl)methyl]-6-[2-[4-(trifluoromethyl)phenyl]pyrrolidin-1-yl]pyrimidin-4-amine] | >20 | >80 | > 6.00 |
| OCCC1(CNc2ncnc(N3CCC[C@@H]3c3ccc(C(F)(F)F)cc3)c2F)CCOCC1 [Example 221, 2-[4-[[[5-fluoro-6-[(2R)-2-[4-(trifluoromethyl)phenyl]pyrrolidin-1-yl]pyrimidin-4-yl]amino]methyl]tetrahydropyran-4-yl]ethanol] | >50 | >80 | > 6.30 |
| Fc1c(NC[C@H]2CC[C@H](Cc3nnn[nH]3)CC2)ncnc1N1CCOC[C@@H]1c1ccc(C(F)(F)F)cc1 [Example 288, 5-fluoro-N-[[4-(1H-tetrazol-5-ylmethyl)cyclohexyl]methyl]-6-[(3S)-3-[4-(trifluoromethyl)phenyl]morpholin-4-yl]pyrimidin-4-amine] | >80 | >80 | > 6.30 |
| CC(OC(C)(C)C)[C@@H](Nc1ncnc(N2CCCC2c2ccc(C(F)(F)F)cc2)c1F)C(N)=O (stereo partly drawn) [Example 51, (2R)-3-tert-butoxy-2-[[5-fluoro-6-[2-[4-(trifluoromethyl)phenyl]pyrrolidin-1-yl]pyrimidin-4-yl]amino]butanamide] |  | >80 | > 6.00 |
| O=S(=O)(CC(F)(F)F)N[C@H]1CC[C@H](CNc2ncnc(N3CCOC[C@@H]3c3ccc(OC(F)(F)F)cc3)c2F)CC1 [Example 285, 2,2,2-trifluoro-N-[4-[[[5-fluoro-6-[(3S)-3-[4-(trifluoromethoxy)phenyl]morpholin-4-yl]pyrimidin-4-yl]amino]methyl]cyclohexyl]ethane sulfonamide] | >0 | >20 | > 6.30 |
| NC(=O)CC1CCC(CNc2ncnc(N3CCOC[C@@H]3c3ccc(C(F)(F)F)cc3)c2F)CC1 (stereo partly drawn) [Example 206, 2-[4-[[[5-fluoro-6-[(3S)-3-[4-(trifluoromethyl)phenyl]morpholin-4-yl]pyrimidin-4-yl]amino]methyl]cyclohexyl] acetamide] | >20 | >80 | > 6.00 |
| O=C(O)Cc1ccc(CNc2ncnc(N3CCOCC3c3ccccc3)c2F)s1 (centres unmarked) [Example 282, 2-[5-[[[5-fluoro-6-(3-phenylmorpholin-4-yl)pyrimidin-4-yl]amino]methyl]-2-thienyl]acetic acid] | >0 | >0 | > 5.00 |
| O=S(=O)(N1CCC(CNc2ncnc(N3CCOC[C@@H]3c3ccc(C(F)(F)F)cc3)c2F)CC1)C(F)(F)F [Example 263, 5-fluoro-6-[(3S)-3-[4-(trifluoromethyl)phenyl]morpholin-4-yl]-N-[[1-(trifluoromethylsulfonyl)-4-piperidyl]methyl]pyrimidin-4-amine] | >50 | >80 | > 6.30 |
| NC(=O)Cc1ccc(CNc2ncnc(N3CCCC3c3cccc(Cl)c3)c2F)cc1 (centres unmarked) [Example 306, 2-[4-[[[6-[2-(3-chlorophenyl)pyrrolidin-1-yl]-5-fluoro-pyrimidin-4-yl]amino]methyl]phenyl]acetamide] | >50 | >80 | > 6.30 |
| OC1(CNc2ncnc(N3CCC[C@@H]3c3ccc(C(F)(F)F)cc3)c2F)CCCCCC1 [Example 167, 1-[[[5-fluoro-6-[(2R)-2-[4-(trifluoromethyl)phenyl]pyrrolidin-1-yl]pyrimidin-4-yl]amino]methyl]cycloheptanol] | >0 |  | > 6.30 |
| CC(C)c1ccc(C2CCCN2c2ncnc(NCc3ccc(CC(N)=O)cc3)c2F)cc1 (centres unmarked) [Example 303, 2-[4-[[[5-fluoro-6-[2-(4-isopropylphenyl)pyrrolidin-1-yl]pyrimidin-4-yl]amino]methyl]phenyl]acetamide] | >80 | >80 | > 6.30 |
| NC(=O)Cc1ccc(CNc2ncnc(N3CCCC3c3ccc4c(c3)OCO4)c2F)cc1 (centres unmarked) [Example 299, 2-[4-[[[6-[2-(1,3-benzodioxol-5-yl)pyrrolidin-1-yl]-5-fluoro-pyrimidin-4-yl]amino]methyl]phenyl]acetamide] | >0 | >80 | > 6.00 |
| CC(C)CC(Nc1ncnc(N2CCCC2c2ccc(C(F)(F)F)cc2)c1F)c1nnn[nH]1 (centres unmarked) [Example 123, 5-fluoro-N-[3-methyl-1-(1H-tetrazol-5-yl)butyl]-6-[2-[4-(trifluoromethyl)phenyl]pyrrolidin-1-yl]pyrimidin-4-amine] | >0 | >20 | > 5.00 |
